{"source": "patent US7625917B2", "about": "“Thiolesters and uses thereof” (priority 1998, dated 2009)", "key": {"virus attachment": {"tested_on": "virus attachment", "assay": "cell-based p24 attachment assay", "design": "species or system HIV-1", "experimental": "The cell-based p24 attachment assay was performed as described in Rice (1995) Science 270:1194-1197. Viral inactivation assays were carried out as described in Rice (1995) Science 270:1194-1197, and Turpin (1997) supra, with minor modifications. Briefly, MAGI-CCR-5 cells were plated (4×10^4 cells per well) in flat bottomed 2-cm well plates for 24 h, after which the culture media was removed and compound-treated virus was added. The virus used was obtained by transient transfection of pNL4-3 into HeLa cells yielding the replication competent NL4-3 virus. Virus containing supernatants were treated for 2 h at 37° C. after which residual compound was removed by centrifugation (18,000×g, 1 h, 4° C.). Virus pellets were resuspended and placed on the MAGI-CCR-5 monolayers and cultured for 48 h. Monolayers were fixed and stained with X-gal solution and blue cells counted."}, "[1]": {"tested_on": "fusion of the HL2/3 and MAGI-CCR-5 cells", "assay": "viral fusion assay (HL2/3 and MAGI-CCR-5 co-culture)", "type": "cell-based", "experimental": "Determination of the effect of the test compounds on viral fusion were carried out as follows. Briefly, HL2/3 cells stably expressing HIV-1 Tat and cell surface gp120 and MAGI-CCR-5 cells stably expressing CD4 and CCR5 on their cell surface, containing a β-galactosidase reporter gene under the control of the HIV-1 LTR were pretreated with test compound for 1 h at 37° C. After incubation, the cells were mixed in […] (2×10^5 MAGI-CCR-5 to 8×10^5 HL2/3 cells) and co-cultured for 18 h at 37° C.; cultures were fixed and stained with X-gal solution for β-galactosidase activity. Blue cells represented the Tat transactivation of the HV-1 LTR upon fusion of the HL2/3 and MAGI-CCR-5 cells via the CD4/CCR5 co-receptor gp120 interaction."}, "[2]": {"target": "T1, recombinant HIV-1 integrase (Human immunodeficiency virus type 1 group M subtype B, UniProt P03366)", "T1 construct": "recombinant HIV-1 integrase; S. Hughes, ABL Basic Research NCI-FCRDC, Frederick Md", "assay": "HIV-1 integrase 3′ processing and strand transfer assay", "type": "biochemical", "experimental": "The 5-bromovaleroyl thioester, compound 44, and two 5-pyridiniovaleroyl thioesters, compounds 45and 47, were analyzed in mechanistic and target-based assays. […] Assays for activity against HIV-1 reverse transcriptase rAdT (template/primer) and rCdG (template/primer) using recombinant HIV-1 reverse transcriptase (S. Hughes, ABL Basic Research NCI-FCRDC, Frederick Md.) were performed as described by Rice (1997) supra. Substrate cleavage of recombinant HIV-1 protease in the presence of test compounds using an HPLC-based methodology with the artificial substrate Ala-Ser-Glu-Asn-Try-Pro-Ile-Val-amide (Multiple Peptide Systems, San Diego Calif.) was performed as described by Rice (1997) supra. The ability of recombinant HIV-1 integrase (S. Hughes, ABL Basic Research NCI-FCRDC, Frederick Md.) to carry out 3′ processing and strand transfer activities in the presence of test compounds was performed as described by Buckheit (1994) AIDS Res. Hum. Retroviruses 10:1497-1506, and Turpin (1998) Antimicrob. Agents Chemother. 42: 487-494."}, "Pr55gag precursor": {"target": "T2, Pr55gag precursor (Human immunodeficiency virus type 1 group M subtype B, UniProt P03347)", "T2 construct": "endogenous in cells; host or cells: U1 cells (latently HIV-1 infected), induced with TNFα", "assay": "Gag precursor cross-linking and processing in U1 cells (Western blotting)", "type": "cell-based, HIV-1", "conditions": "TNFα-induced U1 cells", "experimental": "Thiolester compounds were also tested for their ability to. inhibit HIV-1 replication in TNFα-induced U1 and ACH-2 cells. U1 cells were induced with 5 ng/ml of TNFα in the presence of various concentrations of the thiolesters 44, 45 or 47. Forty-eight hours later the cultures were characterized for virus p24 antigen production and cell viability. […] Compound 44 killed 60% of the cells at 200 μM. […] Precursor processing evaluation performed as described by Turpin (1997) Antiviral Chem. Chemother. 8:60-69. Thus, thiolester PATEs initiate intracellular disulfide cross-linking of precursor polyproteins during late phase virus assembly and mediate a direct virucidal effect via an attack on the mature NCp7 retroviral zinc fingers in the cell-free virus.\nVirion cross linking was performed as described by Rice (1995) Science 270:1194-1197 and Turpin (1997) Antiviral Chem. Chemother. 8:60-67. Briefly, highly purified HIV-1MN (11.8 μg total protein) was incubated for 2 hour with concentrations of compound. Virions were concentrated and residual compound was removed by centrifugation (18,000×g, 1 h, 4° C.). The viral pellet was solubilized in 0.5 M Tris-HCl, (pH 6.8), 50% glycerol, 8% SDS and 0.4% bromophenol blue and proteins resolved by Western blotting. Western blotting to detect the expression of HIV-1 proteins in U1 cells or virus pellets for virion cross-linking experiments was carried out as described by Turpin (1996) J. Virol. 70:6180-6189. Briefly, 50 μg of total cellular protein for U1 experiments or the. total virion pellet (11.8 μg total viral protein) for NCp7 cross linking studies was resolved on 4 to 20% polyacrylamide gels in SDS with Tris-Glycine (Novex, San Diego Calif.). Samples for reduced gels were boiled for 5 min in the presence of 5% β-ME prior to loading. Resolved proteins were electroblotted on to polyvinylidene difluoride (PVDF) membranes, and HIV-1 specific proteins were detected using a mixture of goat anti-HIV-1 NCp7 and p24 or anti-NCp7 for virion proteins alone (a kind gift of L. E. Henderson, AIDS Vaccine Program NCI-FCRDC, Frederick, Md.). […]"}, "[3]": {"conditions": "Human immunodeficiency virus 1, Table 7, high dose test 100 μM, read-out: Attachment I50"}}, "note": "Read-outs that look alike come from different tables or passages of the source.", "data": [{"smiles": "CC(=O)NS(=O)(=O)c1ccc(NC(=O)c2ccccc2SC(=O)CCCCBr)cc1", "note": "[Compound 44, N-[2-(5-bromovaleroylthio)benzoyl]sulfacetamide]", "values": [{"measurement": "inhibition of virus attachment (in words)", "setting": "virus attachment", "result": "did not inhibit"}, {"measurement": "IC50", "setting": "virus attachment; [3]", "result": "> 100", "unit": "µM"}, {"measurement": "inhibition of fusion to host cells (in words)", "setting": "[1]", "result": "did not inhibit"}, {"measurement": "inhibition of HIV-1 integrase (in words)", "setting": "[2]", "result": "did not inhibit"}, {"measurement": "cross-linking and processing of viral precursor polyproteins (in words)", "setting": "Pr55gag precursor", "result": "induced β-ME reversible alterations in the mobility of zinc finger containing HIV-1 precursor proteins at a intermediate level"}]}, {"smiles": "CC(=O)NS(=O)(=O)c1ccc(NC(=O)c2ccccc2SC(=O)CCCC[n+]2ccccc2)cc1", "note": "[Compound 45, N-[2-(5-pyridinio-valeroylthio)benzoyl]sulfacetamide bromide]", "values": [{"measurement": "inhibition of virus attachment (in words)", "setting": "virus attachment", "result": "did not inhibit"}, {"measurement": "IC50", "setting": "virus attachment; [3]", "result": "> 100", "unit": "µM"}, {"measurement": "inhibition of fusion to host cells (in words)", "setting": "[1]", "result": "did not inhibit"}, {"measurement": "inhibition of HIV-1 integrase (in words)", "setting": "[2]", "result": "did not inhibit"}, {"measurement": "cross-linking and processing of viral precursor polyproteins (in words)", "setting": "Pr55gag precursor", "result": "induced cross-linking of viral precursor polyproteins and prevented processing of those precursors"}]}, {"smiles": "O=C(CCCC[n+]1ccccc1)Sc1ccccc1C(=O)Nc1ccc(S(=O)(=O)c2ccc([N+](=O)[O-])cc2)cc1", "note": "[Compound 47]", "values": [{"measurement": "inhibition of virus attachment (in words)", "setting": "virus attachment", "result": "did not inhibit"}, {"measurement": "IC50", "setting": "virus attachment; Human immunodeficiency virus 1, read-out: Attachment I50", "result": "> 100", "unit": "µM"}, {"measurement": "inhibition of fusion to host cells (in words)", "setting": "[1]", "result": "did not inhibit"}, {"measurement": "IC50", "setting": "[2]", "result": "> 100", "unit": "µM"}, {"measurement": "inhibition of HIV-1 integrase (in words)", "setting": "[2]", "result": "did not inhibit"}, {"measurement": "cross-linking and processing of viral precursor polyproteins (in words)", "setting": "Pr55gag precursor", "result": "induced cross-linking of viral precursor polyproteins and prevented processing of those precursors"}]}]}
